# From the supplement of paper PMC11208160
# Assay: recombinant UMI read abundance after kanamycin selection (control-corrected) (log10(CPM+1)); higher = more efficient recombination; extreme values may be limits of the assay; sequences stand for … in AGTGCAGAGAAAATCGGCCAGTTTTCTCTGCCTGCAGTCCGCATGCCGTGGGACCCCTTGGGTTCTAACCTGTTGCCTAGATTTATGCAGCGGACTGCCTTTCTCCCAAAGTGATAAACCGG…AGGTTGGTTTCACT; site = the 11-nt donor
# Method in brief: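 The measure is log10(CPM+1) for recombinant UMIs. These were PCR-amplified across the donor–target junction and sequenced after Escherichia coli carrying a donor and donor-binding-loop pair library and a target plasmid with T7-inducible IS621 bridge recombinase was plated on IPTG (0.07 mM) plus kanamycin or unselected. CPM were averaged over two replicates and scaled by control-derived factors.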
# 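Also: IS621 bridge recombinase in Escherichia coli cells against a fixed T5 target plasmid.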
row,Sequence,recombinant UMI read abundance (log10)
1,CTTCTGTCATGGACCGGTTTTCCCGGTAATCCGTATTTGTA (site CTTCTGTCTTA),2.01
2,CTTCTGTCATGGACCGGTTTTCCCGGTAATCCGTATTTGTA (site CTTCTTTCTTA),0
3,CTTCTTTCATGGACCGGTTTTCCCGGTAATCCGTATTTGAC (site CTTCTTTCTGT),0
4,CTTCTTTCATGGACCGGTTTTCCCGGTAATCCGTATTTGTA (site CTTCTATCTTA),0.00989
5,CTTCTTTCATGGACCGGTTTTCCCGGTAATCCGTATTTGTA (site CTTCTCTCTTA),0
6,CTTCTTTCATGGACCGGTTTTCCCGGTAATCCGTATTTGTA (site CTTCTGTCTTA),0.00353
7,CTTCTTTCATGGACCGGTTTTCCCGGTAATCCGTATTTGTA (site CTTCTTTCTTA),0
8,CTTGGACCATGGACCGGTTTTCCCGGTAATCCGTATTTGTT (site CTTGGACCTAA),0.00553
9,CTTGGATCATGGACCGGTTTTCCCGGTAATCCGTATTTGAC (site CTAGTATCTGT),0
10,CTTGGATCATGGACCGGTTTTCCCGGTAATCCGTATTTGAC (site CTTGGATCTGT),0
11,CTTGGATCATGGACCGGTTTTCCCGGTAATCCGTATTTGCA (site CTTGGATCTTG),2.59
12,CTTGGCCCATGGACCGGTTTTCCCGGTAATCCGTATTTGTA (site CTTGGCCCTTA),0.0132
13,CTTGTATCATGGACCGGTTTTCCCGGTAATCCGTATTTGAT (site CTAGTATCTGT),0
14,CTTGTATCATGGACCGGTTTTCCCGGTAATCCGTATTTGAT (site CTTGTATCTAT),1.29
15,CTTGTCTCATGGACCGGTTTTCCCGGTAATCCGTATTTGAA (site CTTGTCTCTTT),1.85
16,CTTGTGGCATGGACCGGTTTTCCCGGTAATCCGTATTTGGA (site CTTGTGGCTTC),0.306
17,CTTGTGTCATGGACCGGTTTTCCCGGTAATCCGTATTTGAC (site CTAGTATCTGT),0
18,CTTGTGTCATGGACCGGTTTTCCCGGTAATCCGTATTTGAC (site CTTGTGTCTGT),0.301
19,CTTTAAACATGGACCGGTTTTCCCGGTAATCCGTATTTGTA (site CTTTAAACTTA),1.06
20,CTTTACACATGGACCGGTTTTCCCGGTAATCCGTATTTGCT (site CTATACACTAG),2.27
21,CTTTACACATGGACCGGTTTTCCCGGTAATCCGTATTTGCT (site CTCTACACTAG),1.2
22,CTTTACACATGGACCGGTTTTCCCGGTAATCCGTATTTGCT (site CTGTACACTAG),1.59
23,CTTTACACATGGACCGGTTTTCCCGGTAATCCGTATTTGCT (site CTTTACACTAG),1.81

row,Sequence,recombinant UMI read abundance (log10)
1,CTTTACACATGGACCGGTTTTCCCGGTAATCCGTATTTGGG (site CTTTACACTCC),0.147
2,CTTTACGCATGGACCGGTTTTCCCGGTAATCCGTATTTGTT (site CTTTACGCTAA),0.6
3,CTTTCGGCATGGACCGGTTTTCCCGGTAATCCGTATTTGTG (site CTTTCGGCTCA),0.003
4,GAAAACGCATGGACCGGTTTTCCCGGTAATCCGTATTTGGA (site GAAAACGCTTC),1.02
5,GAAACCTCATGGACCGGTTTTCCCGGTAATCCGTATTTGGG (site GAAACCTCTCC),0.698
6,GAACGTGCATGGACCGGTTTTCCCGGTAATCCGTATTTGTC (site GAACGTGCTGA),2.1
7,GAAGAGTCATGGACCGGTTTTCCCGGTAATCCGTATTTGTT (site GAAGAATCTAA),3.37
8,GAAGAGTCATGGACCGGTTTTCCCGGTAATCCGTATTTGTT (site GAAGACTCTAA),0.941
9,GAAGAGTCATGGACCGGTTTTCCCGGTAATCCGTATTTGTT (site GAAGAGTCTAA),2.91
10,GAAGAGTCATGGACCGGTTTTCCCGGTAATCCGTATTTGTT (site GAAGATTCTAA),0.417
11,GAAGATTCATGGACCGGTTTTCCCGGTAATCCGTATTTGCT (site GAAGATTCTAA),0.178
12,GAAGATTCATGGACCGGTTTTCCCGGTAATCCGTATTTGCT (site GAAGATTCTAC),0
13,GAAGATTCATGGACCGGTTTTCCCGGTAATCCGTATTTGCT (site GAAGATTCTAG),2.54
14,GAAGATTCATGGACCGGTTTTCCCGGTAATCCGTATTTGCT (site GAAGATTCTAT),0
15,GAAGATTCATGGACCGGTTTTCCCGGTAATCCGTATTTGTC (site GAAGATTCTAA),0.564
16,GAAGATTCATGGACCGGTTTTCCCGGTAATCCGTATTTGTC (site GAAGATTCTCA),0
17,GAAGATTCATGGACCGGTTTTCCCGGTAATCCGTATTTGTC (site GAAGATTCTGA),2.29
18,GAAGATTCATGGACCGGTTTTCCCGGTAATCCGTATTTGTC (site GAAGATTCTTA),0.965
19,GAAGCATCATGGACCGGTTTTCCCGGTAATCCGTATTTGCA (site GAAGCATCTTG),2.67
20,GAAGCGTCATGGACCGGTTTTCCCGGTAATCCGTATTTGTA (site GAAGCGTCTTA),2.88
21,GAAGGGTCATGGACCGGTTTTCCCGGTAATCCGTATTTGTT (site GAAGGGTCTAA),2.74
22,GAAGTAGCATGGACCGGTTTTCCCGGTAATCCGTATTTGGG (site GAAGTAGCTCC),0.618
23,GAAGTCGCATGGACCGGTTTTCCCGGTAATCCGTATTTGCG (site GAAGTCGCTCG),0.562

row,Sequence,recombinant UMI read abundance (log10)
1,GAAGTCGCATGGACCGGTTTTCCCGGTAATCCGTATTTGCG (site GCAGTCGCTCG),0.0126
2,GAAGTCGCATGGACCGGTTTTCCCGGTAATCCGTATTTGCG (site GGAGTCGCTCG),0.0249
3,GAAGTCGCATGGACCGGTTTTCCCGGTAATCCGTATTTGCG (site GTAGTCGCTCG),0.023
4,GAAGTTTCATGGACCGGTTTTCCCGGTAATCCGTATTTGTT (site GAAGATTCTAA),0
5,GAAGTTTCATGGACCGGTTTTCCCGGTAATCCGTATTTGTT (site GAAGCTTCTAA),0.43
6,GAAGTTTCATGGACCGGTTTTCCCGGTAATCCGTATTTGTT (site GAAGGTTCTAA),0
7,GAAGTTTCATGGACCGGTTTTCCCGGTAATCCGTATTTGTT (site GAAGTTTCTAA),1.76
8,GAATACTCATGGACCGGTTTTCCCGGTAATCCGTATTTGAT (site GAATACTCTAT),2.8
9,GAATATTCATGGACCGGTTTTCCCGGTAATCCGTATTTGTT (site GAAAATTCTAA),0
10,GAATATTCATGGACCGGTTTTCCCGGTAATCCGTATTTGTT (site GAACATTCTAA),0
11,GAATATTCATGGACCGGTTTTCCCGGTAATCCGTATTTGTT (site GAAGATTCTAA),0
12,GAATATTCATGGACCGGTTTTCCCGGTAATCCGTATTTGTT (site GAATATTCTAA),0.948
13,GAATCGCCATGGACCGGTTTTCCCGGTAATCCGTATTTGCA (site GAATAGCCTTG),0.613
14,GAATCGCCATGGACCGGTTTTCCCGGTAATCCGTATTTGCA (site GAATCGCCTTG),0.687
15,GAATCGCCATGGACCGGTTTTCCCGGTAATCCGTATTTGCA (site GAATGGCCTTG),0.345
16,GAATCGCCATGGACCGGTTTTCCCGGTAATCCGTATTTGCA (site GAATTGCCTTG),0
17,GAATGACCATGGACCGGTTTTCCCGGTAATCCGTATTTGCA (site GAATGACCTTG),1.13
18,GAATGACCATGGACCGGTTTTCCCGGTAATCCGTATTTGCA (site GAATGCCCTTG),0
19,GAATGACCATGGACCGGTTTTCCCGGTAATCCGTATTTGCA (site GAATGGCCTTG),1.02
20,GAATGACCATGGACCGGTTTTCCCGGTAATCCGTATTTGCA (site GAATGTCCTTG),0
21,GAATGCTCATGGACCGGTTTTCCCGGTAATCCGTATTTGAA (site AAATGCTCTTT),0.536
22,GAATGCTCATGGACCGGTTTTCCCGGTAATCCGTATTTGAA (site CAATGCTCTTT),1.08
